Test results as given in patent publication US20180339976A1, “NOVEL TRIAZOLE DERIVATIVES” (priority 2015, published 2018).

assay: Log P by HPLC on reversed phase columns (EEC directive 79/831 Annex V.A8); assay type: physicochemical; settings: not given
Experimental: Measurement of Log P values was performed according to EEC directive 79/831 Annex V.A8 by HPLC (High Performance Liquid Chromatography) on reversed phase columns with the following methods: • ^[a]
If more than one Log P value is available within the same method, all the values are given and separated by “+”.
Lambda-max-values were determined using UV-spectra from 200 nm to 400 nm and the peak values of the chromatographic signals.

| Structure (SMILES) | LogP |
| --- | --- |
| OC(Cc1ccncc1Cl)(Cn1cncn1)c1ccc(Cl)cc1 (centres unmarked) [Example I-11] | 1.86^[a] |
| OC(Cc1ccncc1Cl)(Cn1cncn1)c1ccc(Oc2ccc(F)cc2F)cc1 (centres unmarked) [Example I-19] | 2.57^[a] |
| OC(Cc1cccnc1Cl)(Cn1cncn1)c1ccccc1 (centres unmarked) [Example I-51] | 1.61^[a] |
| OC(Cc1ccncc1Cl)(Cn1cncn1)c1ccc(F)cc1F (centres unmarked) [Example I-30] | 1.76^[a] |
| OC(Cc1ccncc1F)(Cn1cncn1)c1ccc(F)cc1 (centres unmarked) [Example I-13] | 1.26^[a] |
| OC(Cc1cc(Cl)ncc1F)(Cn1cncn1)c1ccc(Cl)cc1 (centres unmarked) [Example I-40] | 2.27^[a] |
| OC(Cc1ccnc(Cl)c1)(Cn1cncn1)c1ccc(F)cc1 (centres unmarked) [Example I-05] | 1.69^[a] |
| OC(Cc1ccnc(Cl)c1F)(Cn1cncn1)c1ccc(Cl)cc1Cl (centres unmarked) [Example I-09] | 2.69^[a] |
| OC(Cc1ccnc(Cl)c1)(Cn1cncn1)c1ccc(Oc2ccccc2)cc1 (centres unmarked) [Example I-24] | 2.57^[a] |
| OC(Cc1cc(F)ncc1Cl)(Cn1cncn1)c1ccc(Oc2ccccc2)cc1 (centres unmarked) [Example I-34] | 3.02^[a] |
| OC(Cc1cc(F)ncc1Cl)(Cn1cncn1)c1ccc(F)cc1F (centres unmarked) [Example I-41] | 2.35^[a] |
| OC(Cc1cc(F)ncc1Cl)(Cn1cncn1)c1ccc(F)cc1 (centres unmarked) [Example I-15] | 2.12^[a] |
| OC(Cc1cc(F)ncc1Cl)(Cn1cncn1)c1ccc(Oc2ccc(F)cc2F)cc1 (centres unmarked) [Example I-54] | 3.02^[a] |
| OC(Cc1ccnc(Cl)c1F)(Cn1cncn1)c1ccc(F)cc1F (single isomer, unassigned) [Example I-56] | 2.21^[a] |
| OC(Cc1ccnc(Cl)c1F)(Cn1cncn1)c1ccc(Cl)cc1 (centres unmarked) [Example I-10] | 2.23^[a] |
| N#Cc1ccc(C(O)(Cc2cccnc2Cl)Cn2cncn2)cc1 (centres unmarked) [Example I-35] | 1.47^[a] |
| OC(Cc1cccnc1Cl)(Cn1cncn1)c1cccc(Cl)c1 (centres unmarked) [Example I-17] | 1.97^[a] |
| OC(Cc1ccncc1F)(Cn1cncn1)c1ccccc1 (centres unmarked) [Example I-36] | 1.13^[a] |

| Structure (SMILES) | LogP |
| --- | --- |
| OC(Cc1ccncc1Cl)(Cn1cncn1)c1ccc(F)cc1 (centres unmarked) [Example I-18] | 1.57^[a] |
| OC(Cc1ccncc1F)(Cn1cncn1)c1ccc(Cl)cc1Cl (centres unmarked) [Example I-53] | 2.00^[a] |
| OC(Cc1cc(F)ncc1Cl)(Cn1cncn1)c1ccccc1 (centres unmarked) [Example I-14] | 2.02^[a] |
| OC(Cc1ccnc(Cl)c1)(Cn1cncn1)c1ccc(Cl)cc1Cl (centres unmarked) [Example I-50] | 2.42^[a] |
| COC(Cc1ccnc(Cl)c1F)(Cn1cncn1)c1ccc(F)cc1F (centres unmarked) [Example I-57] | 2.47^[a] |
| OC(Cc1cccnc1Cl)(Cn1cncn1)c1ccc(C(F)(F)F)cc1 (centres unmarked) [Example I-16] | 2.22^[a] |
| OC(Cc1ccncc1F)(Cn1cncn1)c1ccc(Cl)cc1 (centres unmarked) [Example I-31] | 1.54^[a] |
| OC(Cc1ccncc1Cl)(Cn1cncn1)c1ccc(Oc2ccccc2)cc1 (centres unmarked) [Example I-01] | 2.46^[a] |
| OC(Cc1ccnc(Cl)c1)(Cn1cncn1)c1ccc(Cl)cc1 (centres unmarked) [Example I-47] | 1.96^[a] |
| OC(Cc1cc(Cl)ncc1F)(Cn1cncn1)c1ccc(F)cc1F (centres unmarked) [Example I-45] | 2.13^[a] |
| OC(Cc1cc(Cl)ncc1F)(Cn1cncn1)c1ccc(F)cc1 (centres unmarked) [Example I-32] | 1.96^[a] |
| OC(Cc1ccnc(Cl)c1F)(Cn1cncn1)c1ccccc1 (centres unmarked) [Example I-49] | 1.84^[a] |
| CC(C)(C)c1noc(-c2ccc(C(O)(Cc3ccncc3Cl)Cn3cncn3)cc2)n1 (centres unmarked) [Example I-38] | 2.65^[a] |
| OC(Cc1ccnc(Cl)c1F)(Cn1cncn1)c1ccc(Oc2ccccc2)cc1 (centres unmarked) [Example I-46] | 2.84^[a] |
| OC(Cc1ccncc1Cl)(Cn1cncn1)c1ccc(Oc2ccc(Cl)cc2)cc1 (centres unmarked) [Example I-06] | 2.90^[a] |
| OC(Cc1ccncc1F)(Cn1cncn1)c1ccc(Oc2ccccc2)cc1 (centres unmarked) [Example I-03] | 2.13^[a] |
| OC(Cc1cccnc1Cl)(Cn1cncn1)c1ccc(Cl)cc1 (centres unmarked) [Example I-52] | 1.99^[a] |
| OC(Cc1ccnc(Cl)c1)(Cn1cncn1)c1ccc(Oc2ccc(F)cc2F)cc1 (centres unmarked) [Example I-25] | 2.69^[a] |

same assay, conditions: Table 1, formula (I); method [a]: LC-UV, acidic range, 0.1% formic acid in water and acetonitrile

| Structure (SMILES) | LogP |
| --- | --- |
| OC(Cc1cc(Cl)ncc1F)(Cn1cncn1)c1ccc(-c2ccccc2)cc1 (centres unmarked) [Example I-26] | 2.88^[a] |
| OC(Cc1ccncc1Cl)(Cn1cncn1)c1ccc(-c2ccccc2)cc1 (centres unmarked) [Example I-02] | 2.46^[a] |
| OC(Cc1ccncc1F)(Cn1cncn1)c1ccc(-c2ccccc2)cc1 (centres unmarked) [Example I-04] | 2.13^[a] |
| OC(Cc1ccnc(Cl)c1)(Cn1cncn1)c1ccc(-c2ccccc2)cc1 (centres unmarked) [Example I-39] | 2.57^[a] |

same assay, conditions: Table 2, epoxides of formula (XII); method [a]: LC-UV, acidic range, 0.1% formic acid in water and acetonitrile

| Structure (SMILES) | LogP |
| --- | --- |
| Fc1ccc(Oc2ccc(C3(Cc4ccncc4Cl)CO3)cc2)c(F)c1 (centres unmarked) [XII-33] | 3.80^[a] |
| Fc1ccc(C2(Cc3ccnc(Cl)c3F)CO2)c(F)c1 (racemic) [XII-47] | 3.26^[a] |
| Fc1cc(CC2(c3ccccc3Cl)CO2)c(Cl)cn1 (racemic) [XII-38] | 3.80^[a] |
| Fc1ccc(C2(Cc3cc(F)ncc3Cl)CO2)c(F)c1 (racemic) [XII-35] | 3.46^[a] |
| Fc1ccc(Oc2ccc(C3(Cc4c(Cl)cncc4Cl)CO3)cc2)c(F)c1 (racemic) [XII-52] | 4.70^[a] |
| Fc1ccc(C2(Cc3cc(Cl)ncc3F)CO2)cc1 (centres unmarked) [XII-16] | 3.15^[a] |
| Clc1ccc(C2(Cc3c(Cl)cncc3Cl)CO2)cc1 (racemic) [XII-57] | 4.10^[a] |
| Clc1cnccc1CC1(c2ccccc2Cl)CO1 (centres unmarked) [XII-29] | 3.02^[a] |
| Cc1cc(C)c(C2(Cc3ccncc3Cl)CO2)c(C)c1 (racemic) [XII-60] | 4.15^[a] |
| Clc1ccc(C2(Cc3ccncc3Cl)CO2)c(Cl)c1 (centres unmarked) [XII-31] | 3.06^[a] |
| Clc1cncc(Cl)c1CC1(c2ccccc2)CO1 (racemic) [XII-58] | 3.53^[a] |
| Clc1ccccc1COc1ccc(C2(Cc3ccncc3Cl)CO2)cc1 (racemic) [XII-64] | 4.30^[a] |
| Fc1cnccc1CC1(c2ccc(Cl)cc2Cl)CO1 (centres unmarked) [XII-3] | 3.19^[a] |
| Fc1ccc(Oc2ccc(C3(Cc4cc(F)ncc4Cl)CO3)cc2)c(F)c1 (racemic) [XII-41] | 4.51^[a] |
| Clc1cc(CC2(c3ccc(-c4ccccc4)cc3)CO2)ccn1 (centres unmarked) [XII-13] | 3.89^[a] |
| Fc1ccc(C2(Cc3ccnc(Cl)c3F)CO2)cc1 (racemic) [XII-50] | 3.11^[a] |
| FC(F)(F)c1ccc(C2(Cc3cccnc3Cl)CO2)cc1 (centres unmarked) [XII-25] | 3.46^[a] |
| Fc1cc(CC2(c3ccc(-c4ccccc4)cc3)CO2)c(Cl)cn1 (racemic) [XII-42] | 4.64^[a] |
| Fc1c(CC2(c3ccc(-c4ccccc4)cc3)CO2)ccnc1Cl (racemic) [XII-45] | 4.25^[a] |
| Clc1ccc(C2(Cc3cccnc3Cl)CO2)cc1 (centres unmarked) [XII-24] | 3.25^[a] |
| Clc1ccc(C2(Cc3ccnc(Cl)c3)CO2)cc1 (centres unmarked) [XII-15] | 3.19^[a] |
| Fc1cnccc1CC1(c2ccc(Oc3ccccc3)cc2)CO1 (centres unmarked) [XII-7] | 3.37^[a] |
| Fc1ccc(C2(Cc3ccncc3Cl)CO2)cc1 (centres unmarked) [XII-27] | 2.65^[a] |
| Fc1cc(CC2(c3ccc(Cl)cc3)CO2)c(Cl)cn1 (racemic) [XII-37] | 3.85^[a] |
| Fc1cnc(Cl)cc1CC1(c2ccc(Cl)cc2Cl)CO1 (centres unmarked) [XII-19] | 4.17^[a] |

| Structure (SMILES) | LogP |
| --- | --- |
| Fc1cnc(Cl)cc1CC1(c2ccc(Cl)cc2)CO1 (centres unmarked) [XII-17] | 3.56^[a] |
| Clc1cnccc1CC1(c2c(Cl)cccc2Cl)CO1 (racemic) [XII-62] | 3.02^[a] |
| Fc1cnc(Cl)cc1CC1(c2ccc(Oc3ccccc3)cc2)CO1 (centres unmarked) [XII-18] | 4.23^[a] |
| Fc1c(CC2(c3ccc(Oc4ccccc4)cc3)CO2)ccnc1Cl (racemic) [XII-48] | 4.20^[a] |
| Fc1cc(CC2(c3ccc(Oc4ccccc4)cc3)CO2)c(Cl)cn1 (racemic) [XII-40] | 4.57^[a] |
| Fc1cc(CC2(c3ccc(Cl)cc3Cl)CO2)c(Cl)cn1 (racemic) [XII-36] | 4.45^[a] |
| Fc1c(CC2(c3ccccc3Cl)CO2)ccnc1Cl (racemic) [XII-49] | 3.47^[a] |
| Fc1ccc(C2(Cc3c(Cl)cncc3Cl)CO2)cc1 (racemic) [XII-56] | 3.58^[a] |
| Fc1c(CC2(c3ccc(Cl)cc3Cl)CO2)ccnc1Cl (racemic) [XII-46] | 3.02^[a] |
| Fc1ccc(C2(Cc3ccnc(Cl)c3)CO2)cc1 (centres unmarked) [XII-14] | 2.76^[a] |
| Fc1cnccc1CC1(c2ccc(-c3ccccc3)cc2)CO1 (centres unmarked) [XII-8] | 3.37^[a] |
| Clc1cncc(Cl)c1CC1(c2ccc(Oc3ccccc3)cc2)CO1 (racemic) [XII-51] | 4.76^[a] |
| Fc1ccc(C2(Cc3c(Cl)cncc3Cl)CO2)c(F)c1 (racemic) [XII-55] | 3.68^[a] |
| Fc1ccc(C2(Cc3ccnc(Cl)c3)CO2)c(F)c1 (centres unmarked) [XII-11] | 2.93^[a] |
| Fc1ccc(C2(Cc3cc(F)ncc3Cl)CO2)cc1 (racemic) [XII-39] | 3.37^[a] |
| Clc1ccc(C2(Cc3ccnc(Cl)c3)CO2)c(Cl)c1 (centres unmarked) [XII-10] | 3.85^[a] |
| Fc1ccc(C2(Cc3ccncc3Cl)CO2)c(F)c1 (centres unmarked) [XII-34] | 2.76^[a] |
| Clc1ccc(C2(Cc3c(Cl)cncc3Cl)CO2)c(Cl)c1 (racemic) [XII-54] | 4.76^[a] |
| Fc1ccc(Oc2ccc(C3(Cc4ccnc(Cl)c4)CO3)cc2)c(F)c1 (centres unmarked) [XII-12] | 3.85^[a] |
| Clc1cccc(C2(Cc3cccnc3Cl)CO2)c1 (centres unmarked) [XII-23] | 3.24^[a] |
| N#Cc1ccc(C2(Cc3cccnc3Cl)CO2)cc1 (centres unmarked) [XII-26] | 2.35^[a] |
| Fc1c(CC2(c3ccc(Cl)cc3)CO2)ccnc1Cl (racemic) [XII-43] | 3.58^[a] |
| Clc1cnccc1CC1(c2cccc(Cl)c2Cl)CO1 (racemic) [XII-61] | 3.53^[a] |
| Clc1cncc(Cl)c1CC1(c2ccc(-c3ccccc3)cc2)CO1 (racemic) [XII-53] | 4.89^[a] |
